melting point [°C] | SMILES
62 to 64 | Cc1ccc2cc(-c3ccccc3)n(C(=O)OC(C)(C)C)c2c1 [4y, tert-butyl 6-methyl-2-phenyl-1H-indole-1-carboxylate]
110 to 112 | Cc1c(-c2ccccc2)n(C(=O)OC(C)(C)C)c2ccccc12 [4aa, tert-butyl 3-methyl-2-phenyl-1H-indole-1-carboxylate]
81 to 82 | COc1cccc2c1cc(-c1ccccc1)n2C(=O)OC(C)(C)C [4r, tert-butyl 4-methoxy-2-phenyl-1H-indole-1-carboxylate]
61 to 62 | CC(C)(C)OC(=O)n1c(-c2ccccc2)cc2ccc(Cl)cc21 [4v, tert-butyl 6-chloro-2-phenyl-1H-indole-1-carboxylate]
70 to 72 | CC(C)(C)OC(=O)n1c(-c2ccccc2)cc2ccccc21 [compound 4, tert-butyl 2-phenyl-1H-indole-1-carboxylate]
111 to 112 | CC(C)(C)OC(=O)n1c(-c2ccccc2)cc2c(Cl)cccc21 [4q, tert-butyl 4-chloro-2-phenyl-1H-indole-1-carboxylate]
86 to 87 | CC(C)(C)OC(=O)n1c(-c2ccc(Cl)cc2)cc2ccccc21 [4b, tert-butyl 2-(4-chlorophenyl)-1H-indole-1-carboxylate]
88 to 89 | CC(C)(C)OC(=O)n1c(-c2ccc(Br)cc2)cc2ccccc21 [4c, tert-butyl 2-(4-bromophenyl)-1H-indole-1-carboxylate]

The next lines start with the compound.

SMILES | melting point [°C]
CC(C)(C)OC(=O)n1c(-c2ccc3ccccc3c2)cc2ccccc21 [4l, tert-butyl 2-(naphthalen-2-yl)-1H-indole-1-carboxylate] | 134 to 135
COc1ccc(-c2cc3ccccc3n2C(=O)OC(C)(C)C)cc1 [4g, tert-butyl 2-(4-methoxyphenyl)-1H-indole-1-carboxylate] | 89 to 90
CC(C)(C)OC(=O)n1c(-c2ccccc2)cc2c(F)cccc21 [4p, tert-butyl 4-fluoro-2-phenyl-1H-indole-1-carboxylate] | 121 to 122
CC(C)(C)OC(=O)n1c(-c2ccccc2)cc2ccc(C(F)(F)F)cc21 [4x, tert-butyl 2-phenyl-6-(trifluoromethyl)-1H-indole-1-carboxylate] | 104
CC(C)(C)OC(=O)n1c(-c2ccccc2)cc2ccc(Br)cc21 [4w, tert-butyl 6-bromo-2-phenyl-1H-indole-1-carboxylate] | 54 to 55
CC(C)(C)OC(=O)n1c(-c2ccc(C(F)(F)F)cc2)cc2ccccc21 [4e, tert-butyl 2-(4-(trifluoromethyl)phenyl)-1H-indole-1-carboxylate] | 108 to 109

From patent US9527812B2, “N-heterocyclic carbene-catalyzed synthesis of 2-aryl indoles” (Northwestern University, priority 2014, dated 2016)
